Experimental data taken from article PMC6812009, “Covalent Aurora A regulation by the metabolic integrator coenzyme A” (Redox Biology, 2019).

How the values were obtained:
Experiment in all cases: Kinase profiling screen (radioactive filter-binding assay)
Type in all cases: biochemical
[1] = target: MSPK1 (Homo sapiens, UniProt O75716); details: 100 μM compound, 50 μM ATP; read-out: Kinase activity, % of activity in the absence of inhibitor
Protocol: (§1) Profiling of 117 protein kinases with CoA, dpCoA and ADP was carried out at the International Centre for Protein Kinase Profiling at the University of Dundee. Each compound was tested in vitro, in duplicate, at 100 μM final concentration using recombinant kinases, model substrates and optimal concentrations of ATP. Bacterially expressed full-length His-Aurora A was used to determine the IC50 value for CoA (in the presence or absence of DTT), dpCoA, ADP and desulfo-CoA. The assay was performed in the presence of 5 μM competing ATP. To examine whether the inhibitory effect of CoA on Aurora A is modulated by TPX2, IC50 values for CoA were also generated in the presence and absence of 1 μg TPX2 (residues 1–43) fragment.

[2] = target: PKCβ (Homo sapiens, UniProt P05771); details: 100 μM compound, 50 μM ATP; read-out: Kinase activity, % of activity in the absence of inhibitor
Sequence of PKCβ (P05771 whole entry): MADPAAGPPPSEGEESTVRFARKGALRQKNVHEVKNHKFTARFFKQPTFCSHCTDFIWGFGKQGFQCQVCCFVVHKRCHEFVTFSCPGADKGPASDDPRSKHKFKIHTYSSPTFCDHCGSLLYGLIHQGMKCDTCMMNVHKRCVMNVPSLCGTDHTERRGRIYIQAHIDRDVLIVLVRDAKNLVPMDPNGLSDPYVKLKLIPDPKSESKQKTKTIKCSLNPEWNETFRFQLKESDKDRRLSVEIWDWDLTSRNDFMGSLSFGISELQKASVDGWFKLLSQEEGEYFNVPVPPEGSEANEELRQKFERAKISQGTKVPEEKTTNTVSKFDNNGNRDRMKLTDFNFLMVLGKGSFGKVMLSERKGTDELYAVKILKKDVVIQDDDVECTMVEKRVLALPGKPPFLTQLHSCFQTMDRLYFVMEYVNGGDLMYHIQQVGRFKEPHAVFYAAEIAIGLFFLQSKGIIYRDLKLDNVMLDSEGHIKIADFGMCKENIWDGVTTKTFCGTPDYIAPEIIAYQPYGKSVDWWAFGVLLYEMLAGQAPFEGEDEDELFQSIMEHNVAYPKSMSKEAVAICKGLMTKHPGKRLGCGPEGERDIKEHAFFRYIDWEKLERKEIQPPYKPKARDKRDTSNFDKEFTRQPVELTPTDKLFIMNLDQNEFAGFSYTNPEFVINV
Protocol: as §1

[3] = target: T1, EPH-B4 (Homo sapiens, UniProt P54760); details: 100 μM compound, 50 μM ATP; read-out: Kinase activity, % of activity in the absence of inhibitor
T1 sequence (P54760 16-987): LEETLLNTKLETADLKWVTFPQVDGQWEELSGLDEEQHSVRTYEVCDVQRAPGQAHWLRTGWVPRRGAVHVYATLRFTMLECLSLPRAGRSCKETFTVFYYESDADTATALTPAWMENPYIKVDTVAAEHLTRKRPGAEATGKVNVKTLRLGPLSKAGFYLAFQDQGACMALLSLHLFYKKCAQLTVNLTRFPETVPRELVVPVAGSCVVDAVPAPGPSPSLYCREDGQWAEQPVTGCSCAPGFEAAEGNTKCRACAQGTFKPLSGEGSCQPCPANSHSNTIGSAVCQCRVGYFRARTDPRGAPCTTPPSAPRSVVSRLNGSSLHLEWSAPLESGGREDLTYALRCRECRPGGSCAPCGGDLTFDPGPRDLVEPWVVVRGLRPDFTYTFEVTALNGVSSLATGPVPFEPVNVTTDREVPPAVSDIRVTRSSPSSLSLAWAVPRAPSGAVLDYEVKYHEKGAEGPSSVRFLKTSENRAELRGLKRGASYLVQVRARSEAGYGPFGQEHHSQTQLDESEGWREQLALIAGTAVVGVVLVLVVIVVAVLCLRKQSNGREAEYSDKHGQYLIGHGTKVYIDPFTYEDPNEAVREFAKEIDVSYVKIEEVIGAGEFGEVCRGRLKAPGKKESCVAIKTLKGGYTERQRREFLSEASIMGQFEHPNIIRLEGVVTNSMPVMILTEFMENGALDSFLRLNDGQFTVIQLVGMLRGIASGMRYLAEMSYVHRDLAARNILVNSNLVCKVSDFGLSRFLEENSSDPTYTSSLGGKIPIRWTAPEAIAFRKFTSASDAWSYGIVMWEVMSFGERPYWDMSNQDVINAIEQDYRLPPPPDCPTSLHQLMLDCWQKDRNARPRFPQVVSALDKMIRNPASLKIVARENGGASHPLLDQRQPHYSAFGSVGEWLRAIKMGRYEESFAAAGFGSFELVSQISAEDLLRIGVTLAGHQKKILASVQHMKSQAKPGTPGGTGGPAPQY
Protocol: as §1

[4] = target: RSK2 (Homo sapiens, UniProt P51812); details: 100 μM compound, 50 μM ATP; read-out: Kinase activity, % of activity in the absence of inhibitor
Sequence of RSK2 (P51812 whole entry): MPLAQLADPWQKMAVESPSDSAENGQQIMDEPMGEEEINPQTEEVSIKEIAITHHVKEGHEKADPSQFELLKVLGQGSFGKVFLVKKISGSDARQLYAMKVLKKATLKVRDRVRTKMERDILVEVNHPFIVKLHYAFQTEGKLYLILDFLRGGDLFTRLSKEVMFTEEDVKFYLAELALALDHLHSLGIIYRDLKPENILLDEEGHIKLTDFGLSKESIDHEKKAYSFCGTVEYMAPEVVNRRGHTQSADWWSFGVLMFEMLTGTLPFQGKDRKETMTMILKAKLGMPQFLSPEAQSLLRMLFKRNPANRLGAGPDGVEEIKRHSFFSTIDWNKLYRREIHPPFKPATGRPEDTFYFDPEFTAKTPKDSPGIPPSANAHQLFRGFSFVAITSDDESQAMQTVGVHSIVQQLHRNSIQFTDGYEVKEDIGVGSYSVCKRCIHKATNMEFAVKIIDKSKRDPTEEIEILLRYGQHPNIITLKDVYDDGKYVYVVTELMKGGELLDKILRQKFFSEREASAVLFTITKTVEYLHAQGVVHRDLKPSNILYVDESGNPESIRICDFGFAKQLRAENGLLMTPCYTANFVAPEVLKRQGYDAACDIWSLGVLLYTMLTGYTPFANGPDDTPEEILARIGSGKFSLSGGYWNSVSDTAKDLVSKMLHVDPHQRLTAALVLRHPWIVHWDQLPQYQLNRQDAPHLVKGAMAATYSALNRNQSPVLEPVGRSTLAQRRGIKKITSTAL
Protocol: as §1

[5] = target: PAK6 (Homo sapiens, UniProt Q9NQU5); details: 100 μM compound, 20 μM ATP; read-out: Kinase activity, % of activity in the absence of inhibitor
Sequence of PAK6 (Q9NQU5 whole entry): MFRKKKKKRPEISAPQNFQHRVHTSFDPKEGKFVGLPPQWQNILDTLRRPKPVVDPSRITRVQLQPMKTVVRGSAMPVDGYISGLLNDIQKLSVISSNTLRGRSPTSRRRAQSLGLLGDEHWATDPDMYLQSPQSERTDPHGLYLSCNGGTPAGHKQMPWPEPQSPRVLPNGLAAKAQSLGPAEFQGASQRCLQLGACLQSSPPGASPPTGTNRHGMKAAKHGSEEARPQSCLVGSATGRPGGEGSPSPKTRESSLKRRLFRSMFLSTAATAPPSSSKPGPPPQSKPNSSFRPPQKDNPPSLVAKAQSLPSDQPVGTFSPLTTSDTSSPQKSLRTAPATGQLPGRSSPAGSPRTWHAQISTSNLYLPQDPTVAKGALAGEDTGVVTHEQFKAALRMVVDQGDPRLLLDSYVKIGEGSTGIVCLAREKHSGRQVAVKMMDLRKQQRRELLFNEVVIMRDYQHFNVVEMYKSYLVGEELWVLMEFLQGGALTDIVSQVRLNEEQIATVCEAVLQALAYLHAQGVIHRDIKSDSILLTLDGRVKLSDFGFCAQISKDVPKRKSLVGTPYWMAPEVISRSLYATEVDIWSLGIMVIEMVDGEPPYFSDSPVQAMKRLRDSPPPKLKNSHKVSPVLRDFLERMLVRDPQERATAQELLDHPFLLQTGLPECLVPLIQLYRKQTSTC
Protocol: as §1

[6] = target: BRK (Homo sapiens, UniProt Q13882); details: 100 μM compound, 20 μM ATP; read-out: Kinase activity, % of activity in the absence of inhibitor
Sequence of BRK (Q13882 whole entry): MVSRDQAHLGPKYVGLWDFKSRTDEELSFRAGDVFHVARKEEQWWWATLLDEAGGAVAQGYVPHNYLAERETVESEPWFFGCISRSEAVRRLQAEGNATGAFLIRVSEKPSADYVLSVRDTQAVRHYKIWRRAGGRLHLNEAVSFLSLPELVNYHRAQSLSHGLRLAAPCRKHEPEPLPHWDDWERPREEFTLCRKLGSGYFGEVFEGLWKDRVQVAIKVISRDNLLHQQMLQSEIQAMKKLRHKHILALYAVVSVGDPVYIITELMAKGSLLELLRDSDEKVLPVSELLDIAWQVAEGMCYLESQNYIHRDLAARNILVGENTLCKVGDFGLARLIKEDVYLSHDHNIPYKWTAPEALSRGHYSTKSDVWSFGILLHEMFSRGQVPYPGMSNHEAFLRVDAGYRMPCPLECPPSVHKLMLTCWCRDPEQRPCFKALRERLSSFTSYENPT
Protocol: as §1

[7] = target: T2, MKK6 (Homo sapiens, UniProt P52564); details: 100 μM compound, 50 μM ATP; read-out: Kinase activity, % of activity in the absence of inhibitor
T2 sequence (P52564 1-334): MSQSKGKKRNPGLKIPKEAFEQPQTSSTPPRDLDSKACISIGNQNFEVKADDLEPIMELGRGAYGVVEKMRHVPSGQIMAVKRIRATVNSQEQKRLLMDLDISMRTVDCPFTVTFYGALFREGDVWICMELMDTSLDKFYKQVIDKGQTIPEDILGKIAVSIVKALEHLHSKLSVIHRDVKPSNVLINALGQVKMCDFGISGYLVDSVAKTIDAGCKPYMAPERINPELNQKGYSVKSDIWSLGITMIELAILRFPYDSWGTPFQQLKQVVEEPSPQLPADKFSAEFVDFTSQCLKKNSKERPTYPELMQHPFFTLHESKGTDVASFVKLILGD
Protocol: as §1

[8] = target: CDK2-Cyclin A (Homo sapiens, UniProt P24941); details: 100 μM compound, 20 μM ATP; read-out: Kinase activity, % of activity in the absence of inhibitor
Protocol: as §1

[9] = target: ABL (Homo sapiens, UniProt P00519); details: 100 μM compound, 5 μM ATP; read-out: Kinase activity, % of activity in the absence of inhibitor
Sequence of ABL (P00519 whole entry): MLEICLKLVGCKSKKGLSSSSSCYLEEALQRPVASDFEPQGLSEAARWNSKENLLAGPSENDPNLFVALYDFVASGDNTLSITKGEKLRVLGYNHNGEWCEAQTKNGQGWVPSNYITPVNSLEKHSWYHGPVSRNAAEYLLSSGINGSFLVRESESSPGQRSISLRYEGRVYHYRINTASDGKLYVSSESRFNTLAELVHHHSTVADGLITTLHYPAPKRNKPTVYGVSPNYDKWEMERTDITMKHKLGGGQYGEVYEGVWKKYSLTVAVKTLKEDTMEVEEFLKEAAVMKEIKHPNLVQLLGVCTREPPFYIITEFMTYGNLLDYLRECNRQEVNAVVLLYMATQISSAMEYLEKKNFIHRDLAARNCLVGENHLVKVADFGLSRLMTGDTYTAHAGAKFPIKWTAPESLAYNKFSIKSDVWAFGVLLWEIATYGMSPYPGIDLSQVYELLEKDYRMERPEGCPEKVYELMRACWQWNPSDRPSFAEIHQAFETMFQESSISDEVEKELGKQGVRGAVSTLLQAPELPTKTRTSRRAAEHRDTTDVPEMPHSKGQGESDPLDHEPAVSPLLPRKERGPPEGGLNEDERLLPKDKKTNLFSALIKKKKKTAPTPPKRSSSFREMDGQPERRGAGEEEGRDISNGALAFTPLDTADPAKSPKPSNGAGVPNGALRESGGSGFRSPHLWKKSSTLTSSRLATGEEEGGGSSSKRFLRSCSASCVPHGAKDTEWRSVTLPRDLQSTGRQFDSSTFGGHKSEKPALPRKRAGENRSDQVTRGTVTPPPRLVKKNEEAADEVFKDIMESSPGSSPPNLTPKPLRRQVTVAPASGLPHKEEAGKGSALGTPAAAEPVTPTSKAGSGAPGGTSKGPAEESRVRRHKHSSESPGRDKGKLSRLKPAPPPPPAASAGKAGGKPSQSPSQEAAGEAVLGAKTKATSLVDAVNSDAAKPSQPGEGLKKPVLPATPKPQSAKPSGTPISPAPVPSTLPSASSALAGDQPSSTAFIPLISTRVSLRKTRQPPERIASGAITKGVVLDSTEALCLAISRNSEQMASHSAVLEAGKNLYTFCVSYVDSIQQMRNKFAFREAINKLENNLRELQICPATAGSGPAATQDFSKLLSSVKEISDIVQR
Protocol: as §1

[10] = target: T3, IKKε (Homo sapiens, UniProt Q14164); details: 100 μM compound, 50 μM ATP; read-out: Kinase activity, % of activity in the absence of inhibitor
T3 sequence (Q14164 1-716): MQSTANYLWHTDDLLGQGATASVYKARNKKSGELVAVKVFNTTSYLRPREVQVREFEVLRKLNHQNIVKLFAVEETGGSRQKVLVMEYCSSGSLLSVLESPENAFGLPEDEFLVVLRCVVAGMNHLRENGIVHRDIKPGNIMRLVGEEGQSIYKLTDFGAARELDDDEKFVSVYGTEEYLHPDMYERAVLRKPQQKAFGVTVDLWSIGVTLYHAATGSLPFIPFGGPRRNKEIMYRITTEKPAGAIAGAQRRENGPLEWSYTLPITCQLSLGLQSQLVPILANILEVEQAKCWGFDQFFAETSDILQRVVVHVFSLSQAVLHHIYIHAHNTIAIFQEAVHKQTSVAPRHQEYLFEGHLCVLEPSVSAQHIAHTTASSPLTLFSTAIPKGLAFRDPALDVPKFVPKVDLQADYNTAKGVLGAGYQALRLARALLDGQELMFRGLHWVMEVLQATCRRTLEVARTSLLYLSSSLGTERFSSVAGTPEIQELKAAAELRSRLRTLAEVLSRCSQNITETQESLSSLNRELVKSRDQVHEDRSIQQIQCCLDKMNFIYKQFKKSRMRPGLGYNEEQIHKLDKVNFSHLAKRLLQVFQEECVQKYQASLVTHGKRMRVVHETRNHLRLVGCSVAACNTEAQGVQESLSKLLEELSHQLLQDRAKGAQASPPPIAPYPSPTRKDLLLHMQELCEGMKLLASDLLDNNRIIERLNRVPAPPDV
Protocol: as §1

Sequence of MSPK1 (O75716 whole entry, the tested form may be a part): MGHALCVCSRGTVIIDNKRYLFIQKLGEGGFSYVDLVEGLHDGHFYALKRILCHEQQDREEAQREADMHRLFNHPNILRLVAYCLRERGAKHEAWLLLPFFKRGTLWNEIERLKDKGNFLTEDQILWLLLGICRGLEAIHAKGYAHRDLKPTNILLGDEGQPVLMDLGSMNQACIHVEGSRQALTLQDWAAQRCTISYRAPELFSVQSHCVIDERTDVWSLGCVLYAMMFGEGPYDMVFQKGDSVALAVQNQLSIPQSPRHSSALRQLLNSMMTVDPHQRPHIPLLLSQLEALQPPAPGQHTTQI

Row | SMILES | activity at 100 µM [1] | activity at 100 µM [2] | activity at 100 µM [3] | activity at 100 µM [4] | activity at 100 µM [5] | activity at 100 µM [6] | activity at 100 µM [7] | activity at 100 µM [8] | activity at 100 µM [9] | activity at 100 µM [10]
1 | CC(C)(COP(=O)(O)OP(=O)(O)OC[C@H]1O[C@@H](n2cnc3c(N)ncnc32)[C@H](O)[C@@H]1OP(=O)(O)O)[C@@H](O)C(=O)NCCC(=O)NCCS [CoA, Coenzyme A] | 102% | 118% | 107% | 96.5% | 98.4% | 114% | 88.6% | 93.2% | 111% | 125%
2 | Nc1ncnc2c1ncn2C1OC(COP(=O)(O)OP(=O)(O)O)C(O)C1O (stereo not drawn) [ADP] | 94.1% | 79.2% | 9.8% | 47.9% | 78.4% | 41.3% | 39.1% | 26.3% | 22.9% | 73.8%
3 | CC(C)(COP(=O)(O)OP(=O)(O)OCC1OC(n2cnc3c(N)ncnc32)C(O)C1O)C(O)C(=O)NCCC(=O)NCCS (stereo not drawn) [dpCoA, dephospho-CoA] | 102% | 105% | 62.1% | 62.9% | 101% | 83.1% | 88.2% | 81.1% | 98% | 91.4%
